Measured values published in US20260116845A1, “LIPIDS AND COMPOSITIONS THEREOF” (Kernal Biologics, Inc., priority 2023, published 2026).

Experiments:
AML12 Cell Line = assay: Transfection of AML12 Cell Line with FLuc mRNA LNPs (ONE-Glo EX luciferase signal); format: cell-based; conditions: 200 ng Fluc mRNA-LNP, 24 hours; Table 4
Description: (§1) mRNA encapsulated lipid nanoparticles (mRNA LNPs) were formulated using microfluidic mixing with a PNI Ignite instrument. Briefly, lipids (ionizable: structural: helper: PEG) were dissolved in ethanol and mixed with and aqueous solution of mRNA. These mRNA-loaded dispersions were then neutralized via a buffer exchange with a pre-determined buffer overnight. Afterwards, formed LNPs were concentrated with Amicon filter centrifugation, filtered, concentration of mRNA determined through a ribogreen assay, and frozen at −80° C. until use.
(§2) Cell lines were grown to confluence in T75 flasks using complete media of DMEM-F12 for AML12 and DMEM for both B16F10 and MC38.K. Cells were plated in a white 96 flat-well plate (AML12=20,000 cells/well, B16F10 and MC38.K=5,000 cells/well) with their respected media. Lipid nanoparticles were first diluted to 50 μg/ml using Opti-MEM and pre-incubated with mouse serum for 30 minutes to give an LNP concentration of 8 μg/ml. Cell media was replaced with Opti-MEM and LNPs were added to cells (200 ng of mRNA-LNP), placed back in the incubator, and allowed to transfect for 24 hours. Afterwards, 100 μl of Promega's ONE-Glo™ EX Luciferase Assay System or Promega's CellTiter-Glo® Luminescent Cell Viability Assay was added and mixed in their respective wells, followed by recording luminescence signals on a Thermo Scientific Varioskan LUX multimode microplate reader. The results are shown in FIG. 1, FIG. 2, FIG. 3, FIG. 4, FIG. 5, FIG. 6, FIG. 10, FIG. 11, and FIG. 21.

B16F10 Cell Line = assay: Transfection of B16F10 Cell Line with FLuc mRNA LNPs (ONE-Glo EX luciferase signal); format: cell-based; conditions: 200 ng Fluc mRNA-LNP, 24 hours; Table 4
Description: as §1, §2

MC38.K Cell Line = assay: Transfection of MC38.K Cell Line with FLuc mRNA LNPs (ONE-Glo EX luciferase signal); format: cell-based; conditions: 200 ng Fluc mRNA-LNP, 24 hours; Table 4
Description: as §1, §2

Liver = assay: Ex-vivo luminescence signal from liver after IV Fluc mRNA LNPs in CD1 mice (IVIS); conditions: tail vein 1.0 mg/kg Day 0 and Day 2, imaging 18 hours after second dose, Table 4

| SMILES | Total Luciferin Signal (RLU) In Vitro - AML12 (AML12 Cell Line) | Total Luciferin Signal (RLU) In Vitro - B16F10 (B16F10 Cell Line) | Total Luciferin Signal (RLU) In Vitro - MC38.K (MC38.K Cell Line) | Total Liver Tissue Luciferin Signal (Photons/s) Ex-vivo - CD1 (Liver) |
| --- | --- | --- | --- | --- |
| CCCCCCCCC(CCCCCCCCF)OC(=O)CCCCCN(CCO)CCCCC(C)C(=O)OCCCCCCCCCCC(C)C (centres unmarked) [Compound 65, 11-methyldodecyl 6-((6-((1-fluoroheptadecan-9-yl)oxy)-6-oxohexyl)(2-hydroxyethyl)amino)-2-methylhexanoate] | 3.24E+05 RLU | 3.78E+05 RLU | 3.81E+06 RLU | 4.01E+09 Photons/s |
| CCCCCCCCCOC(=O)CCCCCN(CCO)CCCCCCCC(=O)OC(CCCCCCCC)CCCCCCCCF (centres unmarked) [Compound 34] | 1.56E+05 RLU | 238754.8 RLU | 4.19E+05 RLU | 1.89E+09 Photons/s |
| CCCCCCCCCCCOC(=O)CCCCCN(CCO)CCCCCCCC(=O)OC(CCCCCCCC)CCCCCC(C)C (centres unmarked) [Compound 18] | 2.99E+06 RLU | 2.65E+06 RLU | – | 4.74E+09 Photons/s |
| CCCCCCCCCCCCN(CCO)CCCCCCCC(=O)OC(CCCCCCCC)CCCCCCCC [Compound 41] | 3.63E+06 RLU | 2.52E+06 RLU | – | 8.12E+09 Photons/s |
| CCCCCCCCC(CCCCCCCCF)C(=O)OCCCCCCCN(CCCCO)CCCCCCCOC(=O)C(C)CCCCCCCC(C)C (centres unmarked) [Compound 89, 7-((7-((10-fluoro-2-octyldecanoyl)oxy)heptyl)(4-hydroxybutyl)amino)heptyl 2,10-dimethylundecanoate] | 7.66E+06 RLU | 9.61E+06 RLU | 3.88E+07 RLU | – |
| CCCCCCCCCC(=O)OCCCCCCCN(CCO)CCCCCCCOC(=O)CCCCCCCCC [Compound 47] | 3.52E+04 RLU | 3.88E+04 RLU | 5.18E+04 RLU | – |
| CCCCCCCCCOC(=O)C(C)CCCCCCN(CCO)CCCCCCCC(=O)OCC(CCCCCC)CCCCCCCCF (centres unmarked) [Compound 78, nonyl 8-((8-((10-fluoro-2-hexyldecyl)oxy)-8-oxooctyl)(2-hydroxyethyl)amino)-2-methyloctanoate] | 2.42E+06 RLU | 6.65E+06 RLU | 2.21E+07 RLU | – |
| CCCCCCCCC(CCCCCCCC)OC(=O)CCCCCN(CCCCCC(=O)OCCCCCCCCCCC(C)C)CCOC(=O)CCCN(C)C [Compound 17] | 6.34E+05 RLU | 2.64E+06 RLU | 1.15E+06 RLU | – |
| CCCCCCCCC(CCCCCCCF)OC(=O)CCCCCCCN(CCO)CCCCCC(=O)OCCCCCCCCC(C)C (centres unmarked) [Compound 28] | 1.65E+05 RLU | 2.34E+05 RLU | 5.09E+05 RLU | – |
| CCCCCCC(CCCCCCCCF)COC(=O)CCCCCCCN(CCO)CCCCCCC(C)C(=O)OCCCCCCCCC(C)C (centres unmarked) [Compound 73, 9-methyldecyl 8-((8-((10-fluoro-2-hexyldecyl)oxy)-8-oxooctyl)(2-hydroxyethyl)amino)-2-methyloctanoate] | 2.93E+06 RLU | 7.08E+06 RLU | 1.77E+07 RLU | – |
| CCCCCCCCC(CCCCCCCC)OC(=O)CCCCCCCN(CCO)CCCCCCCC(=O)OC(CCCCCCCC)CCCCCCCC [Compound 44] | 8.87E+05 RLU | 1.26E+06 RLU | 3.17E+06 RLU | – |
| CCCCCCCCCOC(=O)C(C)CCCCCCN(CCCCO)CCCCCCCCOC(=O)C(CCCC)CCCCCCF (centres unmarked) [Compound 76, 8-((4-hydroxybutyl)(7-methyl-8-(nonyloxy)-8-oxooctyl)amino)octyl 2-butyl-8-fluorooctanoate] | 3.79E+04 RLU | 7.14E+04 RLU | 2.38E+05 RLU | – |
